In series [1] the test system is Rattus norvegicus. The note with it: Hershberger.
The next series relates to Mus musculus. As to conditions: for LD50: acute.
Series [2] deals with Rattus norvegicus. The note with it: for LD50 / LC50: acute.
Series [3] concerns Rattus norvegicus. As to conditions: subchronic; duration: 13 weeks; oral; diet; M/F; Fischer 344; Deaths + Clinical Observation: Soft stool, Diarrhea Redness around anus + Body Weight Changes: decrease + Food Consumption: decrease + Blood….
Setting [4] is: chronic, duration: 103 weeks, inhalation, Fischer 344.
Setting [5] is: duration: 10 days, injection, subcutaneous, Fischer 344, active + Antiandrogenic + anti-androgenic.
Setting [6] is: subchronic, duration: 6 weeks, oral, gavage, F, B6C3F1.
The mark [7] stands for this setting: subchronic, duration: 6 weeks, oral, gavage, M, B6C3F1.
Where [8] appears, read: subchronic, duration: 6 weeks, oral, gavage, F, Osborne-Mendel.
Setting [9] is: subchronic, duration: 6 weeks, oral, gavage, M, Osborne-Mendel.
Setting [10] is: repeat dose other, inhalation, Fischer 344.
Setting [11] is: short-term, duration: 14 days, oral, diet, B6C3F1.
Where [12] appears, read: subchronic, duration: 13 weeks, oral, diet, B6C3F1.
[13] abbreviates: chronic, duration: 103 weeks, oral, diet, Fischer 344.
Setting [14] is: short-term, duration: 14 days, oral, diet, Fischer 344.
[15] abbreviates: subchronic, duration: 13 weeks, oral, diet, Fischer 344.

In brackets after ≈: the same amount, converted by molar mass. Several values for one entry are separate records, joined by “and”; a condition that tells them apart may be missing. Identical values can stand only once.

In the case of `Cl.N#Cc1ccc(C2CCCc3cncn32)cc1` (stereo not given), the NOEL with Rattus norvegicus [1] (duration: 7 days, oral, gavage, Wistar, inactive + Negative + anti-androgenic + high dose decreased body wt but no effect on PPS or AST) worked out at 6 mg/kg-day.
For the compound `CCCCCCCCCCCCCCC1CO1` (stereo not given) [1,2-Epoxyhexadecane], the LOAEL in the series with Mus musculus (subchronic, duration: 13 weeks, dermal, B6C3F1) was 125 mg/kg-day; in the series on Rattus norvegicus [2] (subchronic, duration: 90 days, dermal, Fischer 344), 125 mg/kg-day. For the same compound, the LD50 is 2000 mg/kg in the series on Rattus norvegicus [2] (dermal, occlusive, Sprague-Dawley) and greater than 5000 mg/kg in the series with Rattus norvegicus [2] (oral, gavage, Sprague-Dawley).
Consider `CCCCCCCCCCCCCCCCCCN` [1-Octadecanamine], for which the LD50 was 1000 mg/kg with Mus musculus (oral, gavage); 1000 mg/kg and > 2000 mg/kg with Rattus norvegicus [2] (oral, gavage); 4800 mg/kg in the series with Rattus norvegicus [2] (oral, gavage, Sprague-Dawley); no less than 2000 mg/kg in the series on Rattus norvegicus [2] (oral, gavage, Wistar).
Turning to `C=CC` [1-Propene], the NOAEL with Mus musculus (chronic, duration: 14 weeks, inhalation, B6C3F1) was 17200 mg/m3; in the series with Mus musculus (chronic, duration: 78 weeks, inhalation, Swiss), no less than 8610 mg/m3; with Mus musculus (chronic, duration: 103 weeks, inhalation, B6C3F1), no less than 17200 mg/m3; in the series with Rattus norvegicus [2] (chronic, duration: 14 weeks, inhalation, Fischer 344) it was 17200 mg/m3; with Rattus norvegicus [2] (setting [4]), 8610 mg/m3; in the series with Rattus norvegicus [2] (chronic, duration: 104 weeks, inhalation, Sprague-Dawley), no less than 8610 mg/m3. Moreover, in the series with Rattus norvegicus [2] (short-term, duration: 4 weeks, inhalation, Fischer 344), the NOAEL amounted to 17200 mg/m3. Besides, the LC50 with Rattus norvegicus [2] (inhalation, Sprague-Dawley) is greater than 112000 mg/m3. Besides, the LOAEL with Rattus norvegicus [2] (setting [4]) worked out at 17200 mg/m3.
As to `O=C(c1ccc(O)cc1)c1ccc(O)cc1O` [2,4,4'-Trihydroxybenzophenone], in the series with Rattus norvegicus [1] (setting [5]), the LOEL came to 300 mg/kg-day and the NOEL is 100 mg/kg-day.
In the case of `O=S1(=O)CC=CC1` [2,5-Dihydrothiophene 1,1-dioxide], the LOAEL with Mus musculus (setting [6]) was determined as 316 mg/kg-day; in the series on Mus musculus (setting [7]), 1000 mg/kg-day; in the series with Rattus norvegicus [2] (setting [8]) it was 178 mg/kg-day; in the series with Rattus norvegicus [2] (setting [9]), 562 mg/kg-day. For the same compound, the NOAEL in the series with Mus musculus (setting [6]) came out at 178 mg/kg-day; with Mus musculus (setting [7]) it was 562 mg/kg-day; in the series with Rattus norvegicus [2] (reproduction developmental, duration: 28 days, oral, gavage, Crj:CD, generation: F0) it was 75 mg/kg-day; in the series on Rattus norvegicus [2] (reproduction developmental, duration: 28 days, oral, gavage, Crj:CD, generation: F1) it was 25 mg/kg-day; with Rattus norvegicus [2] (setting [8]), 100 mg/kg-day; in the series with Rattus norvegicus [2] (setting [9]) it was 316 mg/kg-day. In the series with Rattus norvegicus [2] (oral, gavage, Sprague-Dawley), the 50% lethal dose (LD50) came to 2880 mg/kg.
Turning to `C=CC(=O)OCCN(C)C` [2-(Dimethylamino)ethyl acrylate], the LD50 in the series on Mus musculus (injection, Intraperitoneal, NMRI) was 200 mg/kg; in the series on Rattus norvegicus [2] (dermal), 891 mg/kg; in the series on Rattus norvegicus [2] (dermal, semiocclusive, Sprague-Dawley) it was 419 mg/kg; with Rattus norvegicus [2] (injection, Intraperitoneal), 183 mg/kg; with Rattus norvegicus [2] (oral), 533 mg/kg. Besides, the LC50 in the series with Rattus norvegicus [2] (Inhalation, Sprague-Dawley) is 0.066 µg/mL (≈ 0.461 µM); in the series with Rattus norvegicus [2] (inhalation) it was 0.22 µg/mL and < 0.352 µg/mL; with Rattus norvegicus [2] (inhalation, Wistar), 0.972 µg/mL (≈ 6.79 µM). The NOAEL was 30 mg/kg-day with Rattus norvegicus [2] (developmental, oral, gavage, Crj:CD); 20 mg/kg-day in the series on Rattus norvegicus [2] (reproduction developmental, duration: 43 days, oral, gavage, Sprague-Dawley); 100 mg/kg-day in the series on Rattus norvegicus [2] (reproduction developmental, duration: 43 days, oral, gavage, Sprague-Dawley, generation: F0); 10 mg/kg-day in the series on Rattus norvegicus [2] (subchronic, duration: 13 weeks, oral, gavage, Sprague-Dawley).
In the series with Mus musculus (repeat dose other, inhalation, B6C3F1), `Clc1ccc(Cl)c(C(Cl)(Cl)Cl)n1` [3,6-Dichloro-2-(trichloromethyl)pyridine] registered an NOAEL of 3.47 mg/m3. Further, the LD50 in the series with Rattus norvegicus [2] (oral, gavage) is ≥ 1000 mg/kg and ≤ 2000 mg/kg. For the same compound, in the series with Rattus norvegicus [2] (setting [10]), the LOAEL stood at 14.7 mg/m3 and the no-observed-adverse-effect level (NOAEL) was 3.47 mg/m3.
For `CCCCN(CCCC)c1cccc(O)c1` [3-(Dibutylamino)phenol], in the series with Rattus norvegicus [1] (duration: 10 days, oral, gavage, Wistar, inactive + Negative + Negative + anti-androgenic + negative), the NOEL is 300 mg/kg-day.
For `Nc1ccc(C=Cc2ccc(N)cc2S(=O)(=O)[O-])c(S(=O)(=O)[O-])c1.[Na+].[Na+]` [4,4'-Diamino-2,2'-stilbenedisulfonic acid, disodium salt], the LOAEL is 50000 ppm in the series with Mus musculus (setting [11]); 4920 mg/kg-day in the series on Mus musculus (setting [12]); 1950 mg/kg-day in the series with Rattus norvegicus [2] (setting [13]); 50000 ppm in the series with Rattus norvegicus [2] (setting [14]); 4800 mg/kg-day with Rattus norvegicus [2] (setting [15]). Also, the NOAEL in the series with Mus musculus (setting [11]) came to 25000 ppm; in the series on Mus musculus (setting [12]), 2460 mg/kg-day; with Rattus norvegicus [2] (setting [13]), 975 mg/kg-day; in the series with Rattus norvegicus [2] (setting [14]), 25000 ppm; in the series with Rattus norvegicus [2] (setting [15]), 2400 mg/kg-day. This compound also had a median lethal dose (LD50) in the series on Rattus norvegicus [2] (oral, gavage, Wistar) greater than 5000 mg/kg. Besides, in the series with Rattus norvegicus [3], the NOEL is less than 600 mg/kg-day.

By LOAEL is commonly meant the lowest dose or exposure tested at which an adverse effect was seen. Broadly, the LD50 is the dose expected to kill half of the subjects tested. Lower therefore signals greater toxicity. As a reminder, the NOAEL is the highest tested level that showed no adverse finding.

(Values after EPA's ToxValDB 9.5.)
